This passage reports Ki results from patent US20190185518A9, “WARHEAD-CONTAINING PEPTIDOMIMETIC MACROCYCLES AS MODULATORS OF BFL-1” (AILERON Therapeutics, Inc., priority 2017, published 2019).

The structures appear in SMILES notation. pKi: −log10 of the molar value. Positions of bridges follow the written chain, without caps; N, C: chain ends. Non-standard residues stand in square brackets, D forms with d. Residues, ends and D or L forms follow the SMILES beside them. 2Nal = N[C@@H](Cc1ccc2ccccc2c1)C(=O)O; R8 = C=CCCCCCC[C@@](C)(N)C(=O)O; S5 = C=CCCC[C@](C)(N)C(=O)O

Sequence of Mcl-1 (Q07820 whole entry, species assumed): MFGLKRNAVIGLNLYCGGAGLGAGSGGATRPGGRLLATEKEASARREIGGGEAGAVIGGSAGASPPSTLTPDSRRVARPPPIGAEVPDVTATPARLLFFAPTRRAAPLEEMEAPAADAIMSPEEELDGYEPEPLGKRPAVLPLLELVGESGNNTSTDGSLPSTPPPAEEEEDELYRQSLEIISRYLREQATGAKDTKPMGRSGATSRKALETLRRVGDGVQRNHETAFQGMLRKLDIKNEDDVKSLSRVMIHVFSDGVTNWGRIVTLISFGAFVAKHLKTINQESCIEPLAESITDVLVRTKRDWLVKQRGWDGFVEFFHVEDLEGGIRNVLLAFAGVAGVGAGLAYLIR

This assay concerns the target Mcl-1 (Homo sapiens, UniProt Q07820). Description: Ki determination for Mcl-1 (BCL-2 family binding spectrum). The conditions noted are these: read-out: Ki MCL-1. The text has this: To assess the binding and affinity of compounds that antagonize the interaction between a peptide and an acceptor protein, a fluorescence polarization assay (FPA) utilizing a fluoresceinated peptidomimetic macrocycle derived from a peptidomimetic precursor sequence is used, for example. The FPA technique measures the molecular orientation and mobility using polarized light and fluorescent tracer. […] A compound that antagonizes the interaction between the fluoresceinated peptidomimetic macrocycle and an acceptor protein will be detected in a competitive binding FPA experiment.
Antagonist binding activity is measured, for example, by fluorescence polarization on a luminescence spectrophotometer (e.g. Perkin-Elmer LS50B). Kd values may be determined by nonlinear regression analysis using, for example, Graphpad Prism software (GraphPad Software, Inc., San Diego, Calif.).
In the case of `CC[C@H](C)[C@H](NC(C)=O)C(=O)N[C@@H](Cc1ccccc1)C(=O)N[C@H](C(=O)N[C@@H](C)C(=O)N[C@@H](C)C(=O)N[C@@H](C)C(=O)N[C@@H](CC(C)C)C(=O)N[C@@H](CCCNC(=N)N)C(=O)N[C@]1(C)CCCCCCC=CCCC[C@@](C)(C(=O)N[C@@H](Cc2ccc(O)cc2)C(=O)N[C@@H](Cc2ccc(O)cc2)C(=O)N[C@@H](C)C(N)=O)NC(=O)[C@H](CC(N)=O)NC(=O)[C@H](Cc2ccccc2)NC(=O)[C@H](C)NC(=O)[C@H](CC(=O)O)NC(=O)CNC(=O)[C@H]([C@@H](C)CC)NC1=O)[C@@H](C)CC` [compound 1731] (Ac-IFIAAALR[R8]IGDAFN[S5]YYA-NH2; staple 9-16), the negative-log Ki (pKi) was 7.99.
Then `CC[C@H](C)[C@H](NC(C)=O)C(=O)N[C@@H](Cc1ccc2ccccc2c1)C(=O)N[C@H](C(=O)N[C@@H](C)C(=O)N[C@@H](C)C(=O)N[C@@H](C)C(=O)N[C@@H](CC(C)C)C(=O)N[C@@H](CCCNC(=N)N)C(=O)N[C@]1(C)CCCCCCC=CCCC[C@@](C)(C(=O)N[C@@H](Cc2ccc(O)cc2)C(=O)N[C@@H](Cc2ccc(O)cc2)C(=O)N[C@@H](C)C(N)=O)NC(=O)[C@H](CC(N)=O)NC(=O)[C@H](Cc2ccccc2)NC(=O)[C@H](C)NC(=O)[C@H](CC(=O)O)NC(=O)CNC(=O)[C@H]([C@@H](C)CC)NC1=O)[C@@H](C)CC` [compound 1732] (Ac-I[2Nal]IAAALR[R8]IGDAFN[S5]YYA-NH2; staple 9-16), with 7.86.
Then `CC[C@H](C)[C@H](NC(C)=O)C(=O)N[C@@H](Cc1c[nH]c2ccccc12)C(=O)N[C@H](C(=O)N[C@@H](CO)C(=O)N[C@@H](C)C(=O)N[C@@H](C)C(=O)N[C@@H](CC(C)C)C(=O)N[C@@H](CCCNC(=N)N)C(=O)N[C@]1(C)CCCCCCC=CCCC[C@@](C)(C(=O)N[C@@H](Cc2ccc(O)cc2)C(=O)N[C@@H](Cc2ccc(O)cc2)C(=O)N[C@@H](C)C(N)=O)NC(=O)[C@H](CC(N)=O)NC(=O)[C@H](Cc2ccccc2)NC(=O)[C@H](C)NC(=O)[C@H](CC(=O)O)NC(=O)CNC(=O)[C@H]([C@@H](C)CC)NC1=O)[C@@H](C)CC` [compound 1733] (Ac-IWISAALR[R8]IGDAFN[S5]YYA-NH2; staple 9-16), with 8.44; and `CC[C@H](C)[C@H](NC(C)=O)C(=O)N[C@@H](Cc1c[nH]c2ccccc12)C(=O)N[C@H](C(=O)N[C@@H](CC(C)C)C(=O)N[C@@H](C)C(=O)N[C@@H](C)C(=O)N[C@@H](CC(C)C)C(=O)N[C@@H](CCCNC(=N)N)C(=O)N[C@]1(C)CCCCCCC=CCCC[C@@](C)(C(=O)N[C@@H](Cc2ccc(O)cc2)C(=O)N[C@@H](Cc2ccc(O)cc2)C(=O)N[C@@H](C)C(N)=O)NC(=O)[C@H](CC(N)=O)NC(=O)[C@H](Cc2ccccc2)NC(=O)[C@H](C)NC(=O)[C@H](CC(=O)O)NC(=O)CNC(=O)[C@H]([C@@H](C)CC)NC1=O)[C@@H](C)CC` [compound 1734] (Ac-IWILAALR[R8]IGDAFN[S5]YYA-NH2; staple 9-16), with 7.71; and `CC[C@H](C)[C@H](NC(C)=O)C(=O)N[C@@H](Cc1c[nH]c2ccccc12)C(=O)N[C@H](C(=O)N[C@@H](C)C(=O)N[C@@H](CC(C)C)C(=O)N[C@@H](C)C(=O)N[C@@H](CC(C)C)C(=O)N[C@@H](CCCNC(=N)N)C(=O)N[C@]1(C)CCCCCCC=CCCC[C@@](C)(C(=O)N[C@@H](Cc2ccc(O)cc2)C(=O)N[C@@H](Cc2ccc(O)cc2)C(=O)N[C@@H](C)C(N)=O)NC(=O)[C@H](CC(N)=O)NC(=O)[C@H](Cc2ccccc2)NC(=O)[C@H](C)NC(=O)[C@H](CC(=O)O)NC(=O)CNC(=O)[C@H]([C@@H](C)CC)NC1=O)[C@@H](C)CC` [compound 1736] (Ac-IWIALALR[R8]IGDAFN[S5]YYA-NH2; staple 9-16), with 7.94.
The figure for `CC[C@H](C)[C@H](NC(C)=O)C(=O)N[C@@H](Cc1c[nH]c2ccccc12)C(=O)N[C@H](C(=O)N[C@@H](C)C(=O)N[C@@H](C)C(=O)N[C@@H](C)C(=O)N[C@@H](CC(C)C)C(=O)N[C@@H](CCCNC(=N)N)C(=O)N[C@]1(C)CCCCCCC=CCCC[C@@](C)(C(=O)N[C@@H](Cc2ccc(O)cc2)C(=O)N[C@@H](Cc2ccc(O)cc2)C(=O)N[C@@H](C)C(N)=O)NC(=O)[C@H](CO)NC(=O)[C@H](Cc2ccccc2)NC(=O)[C@H](C)NC(=O)[C@H](CC(=O)O)NC(=O)CNC(=O)[C@H]([C@@H](C)CC)NC1=O)[C@@H](C)CC` [compound 1751] (Ac-IWIAAALR[R8]IGDAFS[S5]YYA-NH2; staple 9-16) is 8.10; for `CC[C@H](C)[C@H](NC(C)=O)C(=O)N[C@@H](Cc1c[nH]c2ccccc12)C(=O)N[C@H](C(=O)N[C@@H](C)C(=O)N[C@@H](CCC(N)=O)C(=O)N[C@@H](C)C(=O)N[C@@H](CC(C)C)C(=O)N[C@@H](CCCNC(=N)N)C(=O)N[C@]1(C)CCCCCCC=CCCC[C@@](C)(C(=O)N[C@@H](Cc2ccc(O)cc2)C(=O)N[C@@H](Cc2ccc3ccccc3c2)C(=O)N[C@@H](C)C(N)=O)NC(=O)[C@H](CC(N)=O)NC(=O)[C@H](Cc2ccccc2)NC(=O)[C@H](C)NC(=O)[C@H](CC(=O)O)NC(=O)CNC(=O)[C@H]([C@@H](C)CC)NC1=O)[C@@H](C)CC` [compound 1759] (Ac-IWIAQALR[R8]IGDAFN[S5]Y[2Nal]A-NH2; staple 9-16) it is 8.10; for `CC[C@H](C)[C@H](NC(C)=O)C(=O)N[C@@H](Cc1c[nH]c2ccccc12)C(=O)N[C@H](C(=O)N[C@@H](C)C(=O)N[C@@H](C)C(=O)N[C@@H](C)C(=O)N[C@@H](CC(C)C)C(=O)N[C@@H](CCCNC(=N)N)C(=O)N[C@]1(C)CCCCCCC=CCCC[C@@](C)(C(=O)N[C@@H](Cc2ccc(O)cc2)C(=O)N[C@@H](Cc2ccc(O)cc2)C(=O)N[C@@H](CC(=O)O)C(N)=O)NC(=O)[C@H](CC(N)=O)NC(=O)[C@H](Cc2ccccc2)NC(=O)[C@H](C)NC(=O)[C@H](CC(=O)O)NC(=O)CNC(=O)[C@H]([C@@H](C)CC)NC1=O)[C@@H](C)CC` [compound 1760] (Ac-IWIAAALR[R8]IGDAFN[S5]YYD-NH2; staple 9-16) it is 8.66.
`CC[C@H](C)[C@H](NC(C)=O)C(=O)N[C@@H](Cc1c[nH]c2ccccc12)C(=O)N[C@H](C(=O)N[C@@H](C)C(=O)N[C@@H](C)C(=O)N[C@@H](C)C(=O)N[C@@H](CC(C)C)C(=O)N[C@@H](CCCNC(=N)N)C(=O)N[C@]1(C)CCCCCCC=CCCC[C@@](C)(C(=O)N[C@@H](Cc2ccc(O)cc2)C(=O)N[C@@H](Cc2ccc(O)cc2)C(=O)N[C@@H](CCC(=O)O)C(N)=O)NC(=O)[C@H](CC(N)=O)NC(=O)[C@H](Cc2ccccc2)NC(=O)[C@H](C)NC(=O)[C@H](CC(=O)O)NC(=O)CNC(=O)[C@H]([C@@H](C)CC)NC1=O)[C@@H](C)CC` [compound 1761] (Ac-IWIAAALR[R8]IGDAFN[S5]YYE-NH2; staple 9-16): the negative-log Ki (pKi) was 8.85.
Consider `CC[C@H](C)[C@H](NC(C)=O)C(=O)N[C@@H](Cc1c[nH]c2ccccc12)C(=O)N[C@H](C(=O)N[C@@H](C)C(=O)N[C@@H](C)C(=O)N[C@@H](C)C(=O)N[C@@H](CC(C)C)C(=O)N[C@@H](CCCNC(=N)N)C(=O)N[C@]1(C)CCCCCCC=CCCC[C@@](C)(C(=O)N[C@@H](Cc2ccc(O)cc2)C(=O)N[C@@H](Cc2ccc(O)cc2)C(=O)N[C@@H](CCC(N)=O)C(N)=O)NC(=O)[C@H](CC(N)=O)NC(=O)[C@H](Cc2ccccc2)NC(=O)[C@H](C)NC(=O)[C@H](CC(=O)O)NC(=O)CNC(=O)[C@H]([C@@H](C)CC)NC1=O)[C@@H](C)CC` [compound 1762] (Ac-IWIAAALR[R8]IGDAFN[S5]YYQ-NH2; staple 9-16), for which the pKi was 8.34.
